In ChEMBL document CHEMBL1201862, “PubChem BioAssay data set” (2004):
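In this assay, cells in 96-well plates receive the compound at five concentrations for 48 hours. Endpoints are linearly interpolated between the surrounding concentrations. GI50 marks 50% less growth.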 The source made the active and inactive calls. Rule as the data show it: active = GI50 up to about 1.1 µM and inactive = higher.

Columns and labels:
Test in all cases: growth of human tumour cells (NCI), 48 h
MOLT-4 = system: MOLT-4
KM-20L2 = system: KM-20L2
HOP-92 = system: HOP-92
K562 = system: K562
UACC-62 = system: UACC-62
DMS-273 = system: DMS-273
HCT-15 = system: HCT-15
M19-MEL = system: M19-MEL
SK-MEL-2 = system: SK-MEL-2
SF-295 = system: SF-295
COLO 205 = system: COLO 205
SNB-78 = system: SNB-78
HCT-116 = system: HCT-116
HL-60 = system: HL-60
EKVX = system: EKVX
OVCAR-3 = system: OVCAR-3
SK-MEL-5 = system: SK-MEL-5
RXF 393 = system: RXF 393
KM12 = system: KM12
U-251 = system: U-251
SK-OV-3 = system: SK-OV-3
ACHN = system: ACHN
UO-31 = system: UO-31
XF498 = system: XF498
TK-10 = system: TK-10
Malme-3M = system: Malme-3M
IGROV-1 = system: IGROV-1
NCI-H522 = system: NCI-H522
NCI-H226 = system: NCI-H226
SNB-19 = system: SNB-19
NCI-H460 = system: NCI-H460
SW-620 = system: SW-620
LOX IMVI = system: LOX IMVI
DMS-114 = system: DMS-114
OVCAR-5 = system: OVCAR-5
HOP-18 = system: HOP-18
CCRF-CEM = system: CCRF-CEM
HT-29 = system: HT-29
786-0 = system: 786-0
M14 = system: M14
OVCAR-8 = system: OVCAR-8
SR = system: SR
SNB-75 = system: SNB-75
SF-539 = system: SF-539
NCI-H23 = system: NCI-H23
SK-MEL-28 = system: SK-MEL-28
SF-268 = system: SF-268
LXFL 529 = system: LXFL 529
SN12C = system: SN12C
RPMI-8226 = system: RPMI-8226
HCC 2998 = system: HCC 2998
UACC-257 = system: UACC-257
DLD-1 = system: DLD-1
A549 = system: A549
A498 = system: A498

With `COC1(OC)c2ccccc2C2(O)c3ccccc3C(=O)C12` (configuration not stated) the GI50 (MOLT-4) was 10.9 µM (inactive), the GI50 (KM-20L2) was 40.6 µM (inactive) and the GI50 (HOP-92) was 46.6 µM (inactive). For the same molecule, the GI50 (K562) was 12.6 µM (inactive), the GI50 (UACC-62) was 13.6 µM (inactive) and the GI50 (DMS-273) was 25.2 µM (inactive). For the same molecule, the GI50 (HCT-15) was 25.3 µM, the GI50 (M19-MEL) was 34.7 µM (inactive) and the GI50 (SK-MEL-2) was 38.1 µM (inactive). The GI50 (SF-295) was 54 µM (inactive), the GI50 (COLO 205) was 13.4 µM (inactive) and the GI50 (SNB-78) was 64.4 µM (inactive). The GI50 (HCT-116) was 70.8 µM (inactive), the GI50 (HL-60) was 13.5 µM (inactive) and the GI50 (EKVX) was 48.8 µM (inactive). The GI50 (OVCAR-3) was 28.8 µM (inactive), the GI50 (SK-MEL-5) was 9.16 µM (inactive) and the GI50 (RXF 393) was > 100 µM (inactive). For the same molecule, the GI50 (KM12) was 39.9 µM (inactive), the GI50 (U-251) was 43 µM (inactive) and the GI50 (SK-OV-3) was 70.1 µM (inactive). The GI50 (ACHN) was 34.1 µM (inactive), the GI50 (UO-31) was 16.4 µM (inactive) and the GI50 (XF498) was 17.8 µM (inactive). The GI50 (TK-10) was 37.3 µM (inactive), the GI50 (Malme-3M) was 38 µM (inactive) and the GI50 (IGROV-1) was 18.2 µM (inactive). For the same molecule, the GI50 (NCI-H522) was 10.2 µM (inactive), the GI50 (NCI-H226) was 27 µM (inactive) and the GI50 (SNB-19) was 74.5 µM (inactive). The GI50 (NCI-H460) was 26.4 µM (inactive), the GI50 (SW-620) was 71 µM (inactive) and the GI50 (LOX IMVI) was 44.7 µM (inactive). For the same molecule, the GI50 (DMS-114) was 35.6 µM (inactive), the GI50 (OVCAR-5) was > 100 µM (inactive) and the GI50 (HOP-18) was 52 µM (inactive). For the same molecule, the GI50 (CCRF-CEM) was 22.5 µM (inactive), the GI50 (HT-29) was 55.5 µM (inactive) and the GI50 (786-0) was 52.6 µM (inactive). For the same molecule, the GI50 (M14) was 23.9 µM (inactive), the GI50 (OVCAR-8) was 39.4 µM (inactive) and the GI50 (SR) was 22.9 µM (inactive). The GI50 (SNB-75) was 29.3 µM (inactive), the GI50 (SF-539) was 61 µM (inactive) and the GI50 (NCI-H23) was 47.4 µM (inactive). The GI50 (SK-MEL-28) was > 100 µM (inactive), the GI50 (SF-268) was > 100 µM (inactive) and the GI50 (LXFL 529) was 20.7 µM (inactive). The GI50 (SN12C) was 60.8 µM (inactive), the GI50 (RPMI-8226) was 5.79 µM (inactive) and the GI50 (HCC 2998) was 57.1 µM (inactive). The GI50 (UACC-257) was 17.9 µM (inactive).
For `COc1ccc(/C=C/C(=O)c2c(-c3ccccc3)nn(C)c(=O)c2N2CCCC2)cc1`, the GI50 (MOLT-4) was 36.9 µM (inactive), the GI50 (KM-20L2) was > 100 µM (inactive) and the GI50 (HOP-92) was 3.69 µM (inactive). The GI50 (K562) was 57.3 µM (inactive), the GI50 (DLD-1) was > 100 µM (inactive) and the GI50 (UACC-62) was > 100 µM (inactive). The GI50 (DMS-273) was > 100 µM (inactive), the GI50 (HCT-15) was greater than 100 µM and the GI50 (M19-MEL) was > 100 µM (inactive). The GI50 (A549) was > 100 µM (inactive), the GI50 (SF-295) was 70.5 µM (inactive) and the GI50 (COLO 205) was > 100 µM (inactive). The GI50 (HCT-116) was 87.9 µM (inactive), the GI50 (HL-60) was 20.9 µM (inactive) and the GI50 (EKVX) was > 100 µM (inactive). The GI50 (SK-MEL-5) was > 100 µM (inactive), the GI50 (U-251) was > 100 µM (inactive) and the GI50 (SK-OV-3) was > 100 µM (inactive). For the same molecule, the GI50 (ACHN) was > 100 µM (inactive), the GI50 (UO-31) was > 100 µM (inactive) and the GI50 (XF498) was > 100 µM (inactive). The GI50 (TK-10) was > 100 µM (inactive), the GI50 (IGROV-1) was > 100 µM (inactive) and the GI50 (NCI-H460) was > 100 µM (inactive). The GI50 (SW-620) was > 100 µM (inactive), the GI50 (LOX IMVI) was > 100 µM (inactive) and the GI50 (DMS-114) was > 100 µM (inactive). The GI50 (HOP-18) was > 100 µM (inactive), the GI50 (CCRF-CEM) was > 100 µM (inactive) and the GI50 (HT-29) was > 100 µM (inactive). For the same molecule, the GI50 (786-0) was 82 µM (inactive), the GI50 (M14) was > 100 µM (inactive) and the GI50 (OVCAR-8) was > 100 µM (inactive). For the same molecule, the GI50 (SF-539) was 69.2 µM (inactive), the GI50 (SK-MEL-28) was > 100 µM (inactive) and the GI50 (SF-268) was 87.3 µM (inactive). For the same molecule, the GI50 (A498) was > 100 µM (inactive), the GI50 (LXFL 529) was > 100 µM (inactive) and the GI50 (SN12C) was > 100 µM (inactive). The GI50 (RPMI-8226) was > 100 µM (inactive).
